Test results taken from patent US20200085789A1, “USE OF A PROTEASOME INHIBITOR FOR THE TREATMENT OF CENTRAL NERVOUS SYSTEM (CNS) CANCERS” (Celgene International II Sàrl, priority 2017, published 2020).

Tests used:
[1] = test system: human glioblastoma (GBM) cell lines; details: either of two GBM lines; cited from earlier work
[2] = test system: WHO Grade IV malignant glioma; experiment: Tumor response by RANO criteria, MRZ ± BEV in recurrent grade IV malignant glioma patients; assay type: in vivo, human; details: for Best Response CR (0), patients / Best Response PD (19), patients / Best Response PR (1), patients / Best Response SD (8), patients: Monotherapy ITT; for SPD: Monotherapy
Procedure: Tumor response was measured every other cycle by RANO criteria.
The drugs were infused on 28-Day Cycles. Tumor response is assessed every other cycle by RANO criteria.
Assessment will include MRI scans at the end of every even numbered cycle (±7 days) using RANO 2010 criteria for assessment.

[3] = Marizomib blood pharmacokinetics (Part 1 Phase 1); details: for AUC(0-t) / Cmax / Tmax / Vd / half-life: human, whole blood, intravenous
Procedure: Blood samples will be taken for peak and trough measurements, pre-dose and immediately prior to (end of infusion) EOI, on Cycle 1 Day 1. On Cycle 1 Day 15 full PK sampling will be done: pre-dose, immediately prior to EOI and then 2, 5, 15, 30, 45, 60, 90 and 120 minutes post infusion. The following PK parameters will be estimated by non-compartmental analysis:
Non-compartmental analyses will be performed. […] Blood concentrations and computed PK parameters for MRZ will be listed and summarized by cohort (mean, geometric mean, standard deviation, coefficient of variation, minimum, maximum and number of observations).
Blood should be drawn from the contralateral arm to the infusion site and using an indwelling catheter to avoid multiple needle sticks is recommended. Sample collection time should be recorded on the tube label and Case Report Form (CRF) as day: hour: minute. Nominal time of blood collection are given as “time points”; it is critical that an accurately collected actual time of the sample is written on the CRF and on the blood tubes (date entered as dd:mm:yyyy; time entered using a 24-hour clock, hh:mm). For MRZ samples will be obtained before treatment and just prior to end of infusion on Cycle 1 Day 1. On Cycle 1 Day 15, MRZ blood samples will be obtained before treatment, just prior to end of infusion, and 2, 5, 15, 30, 45, 60, 90, and 120 minutes after the infusion. Every effort should be made to collect samples at the prescribed times, but deviations up to 10% of the time point are allowed. Additional samples may be collected if the subject experiences a potentially drug-related SAE. After blood collection, neutralizing solution must be added. Use Sponsor-provided PK kits. Process, store and ship samples per instructions in Study Reference Manual.
Non-compartmental analyses will be performed.

[4] = Phase 2 monotherapy, of 30 patients

## C[C@@]12OC(=O)[C@]1([C@@H](O)[C@@H]1C=CCCC1)NC(=O)[C@@H]2CCCl [MRZ, marizomib]
[1]
  decrease of matrix invasion: approximately 90%
[2]; Methylated N = 7
  Best Response CR (0), patients: 0
  Best Response PD (19), patients: 4
  Best Response PR (1), patients: 0
  Best Response SD (8), patients: 3
[2]; Unknown N = 5
  Best Response CR (0), patients: 0
  Best Response PD (19), patients: 3
  Best Response PR (1), patients: 0
  Best Response SD (8), patients: 1
[2]; Unmethylated N = 18
  Best Response CR (0), patients: 0
  Best Response PD (19), patients: 12
  Best Response PR (1), patients: 1
  Best Response SD (8), patients: 4
[2]; Pt 0511, Screening SPD 703.47
  SPD: 231.3
[2]; Pt 0515, Screening SPD 199.6
  SPD: 259.5
[2]; Pt 0521, Screening SPD 836.44
  SPD: 832.82
[2]; Phase 2 monotherapy 0.8 mg/m^2, 30 patients
  overall response rate: 3%
[2]; [4]
  partial response, patients: 1
  progressive disease, patients: 19
[2]; marizomib alone
  disease course in most patients: rapid progression
[3]; MRZ 0.7 mg/m^2, C1D8
  CLobs: 272 ± 166 (3) L/hr
[3]; MRZ 0.8 mg/m^2, C1D8
  CLobs: 304 ± 85.0 (3) L/hr
[3]; co-administration with bevacizumab
  pharmacokinetic parameters: consistent with published parameters and not affected by co-administration
[3]; 0.7 mg/m2
  AUC(0-t): 3.22 ng·h/mL
  Cmax: 64.9 ± 1.73 ng/mL
  Tmax: 21.3 min
  Vd: 48.3 ± 16.1 L
  half-life: 16 ± 8.08 min
[3]; 0.8 mg/m2
  AUC(0-t): 6.53 ng·h/mL
  Cmax: 26.5 ± 7.92 ng/mL
  Tmax: 8 min
  Vd: 55 ± 19.7 L
  half-life: 7.27 ± 0.423 min
[3]; […]2
  Tmax: 15.5 min
  Vd: 54.4 ± 10.6 L
  half-life: 8.2 ± 0.8 min
